{"source": "ChEMBL document CHEMBL1201862", "about": "“PubChem BioAssay data set” (2004)", "assay_in_all_cases": "NCI-60 cell line screen, 48 h", "key": {"A549": {"tested_on": "A549"}, "CCRF-CEM": {"tested_on": "CCRF-CEM"}, "COLO 205": {"tested_on": "COLO 205"}, "HCT-15": {"tested_on": "HCT-15"}, "HL-60": {"tested_on": "HL-60"}, "HOP-62": {"tested_on": "HOP-62"}, "HOP-92": {"tested_on": "HOP-92"}, "K562": {"tested_on": "K562"}, "LOX IMVI": {"tested_on": "LOX IMVI"}, "MOLT-4": {"tested_on": "MOLT-4"}, "NCI-H226": {"tested_on": "NCI-H226"}, "NCI-H460": {"tested_on": "NCI-H460"}, "NCI-H522": {"tested_on": "NCI-H522"}, "OVCAR-3": {"tested_on": "OVCAR-3"}, "RXF 393": {"tested_on": "RXF 393"}, "SK-MEL-28": {"tested_on": "SK-MEL-28"}, "SNB-19": {"tested_on": "SNB-19"}, "SW-620": {"tested_on": "SW-620"}, "OVCAR-4": {"tested_on": "OVCAR-4"}, "IGROV-1": {"tested_on": "IGROV-1"}}, "note": "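These data come from cells grown in 96-well plates and exposed to compound for 48 hours at five concentrations. The concentration for 50% growth inhibition is given as GI50.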 The source made the active and inactive calls. Cut-off read from the data, not from the text of the source: active = GI50 up to about 1.1 µM and inactive = higher."}
{"smiles": "C/C(=N\\OCC(O)CNCCSCc1ccccc1)c1ccccc1Cl", "note": "(centres undefined)", "values": [{"measurement": "GI50", "setting": "A549", "result": "19.6 µM (inactive)"}, {"measurement": "GI50", "setting": "CCRF-CEM", "result": "28.6 µM (inactive)"}, {"measurement": "GI50", "setting": "COLO 205", "result": "19.2 µM (inactive)"}, {"measurement": "GI50", "setting": "HCT-15", "result": 18.2, "unit": "µM"}, {"measurement": "GI50", "setting": "HL-60", "result": "24 µM (inactive)"}, {"measurement": "GI50", "setting": "HOP-62", "result": "19.4 µM (inactive)"}, {"measurement": "GI50", "setting": "HOP-92", "result": "13.2 µM (inactive)"}, {"measurement": "GI50", "setting": "K562", "result": "38.4 µM (inactive)"}, {"measurement": "GI50", "setting": "LOX IMVI", "result": "16.8 µM (inactive)"}, {"measurement": "GI50", "setting": "MOLT-4", "result": "47.5 µM (inactive)"}, {"measurement": "GI50", "setting": "NCI-H226", "result": "17.6 µM (inactive)"}, {"measurement": "GI50", "setting": "NCI-H460", "result": "21.6 µM (inactive)"}, {"measurement": "GI50", "setting": "NCI-H522", "result": "28.7 µM (inactive)"}, {"measurement": "GI50", "setting": "OVCAR-3", "result": "17.9 µM (inactive)"}, {"measurement": "GI50", "setting": "RXF 393", "result": "18.7 µM (inactive)"}, {"measurement": "GI50", "setting": "SK-MEL-28", "result": "20.7 µM (inactive)"}, {"measurement": "GI50", "setting": "SNB-19", "result": "18.5 µM (inactive)"}, {"measurement": "GI50", "setting": "SW-620", "result": "20 µM (inactive)"}]}
{"smiles": "N=C(N)SCCC(=O)CCSC(=N)N", "values": [{"measurement": "GI50", "setting": "A549", "result": "> 100 µM (inactive)"}, {"measurement": "GI50", "setting": "CCRF-CEM", "result": "> 100 µM (inactive)"}, {"measurement": "GI50", "setting": "COLO 205", "result": "> 100 µM (inactive)"}, {"measurement": "GI50", "setting": "HCT-15", "result": "> 100", "unit": "µM"}, {"measurement": "GI50", "setting": "HL-60", "result": "> 100 µM (inactive)"}, {"measurement": "GI50", "setting": "HOP-92", "result": "> 100 µM (inactive)"}, {"measurement": "GI50", "setting": "K562", "result": "99.5 µM (inactive)"}, {"measurement": "GI50", "setting": "LOX IMVI", "result": "> 100 µM (inactive)"}, {"measurement": "GI50", "setting": "MOLT-4", "result": "99.5 µM (inactive)"}, {"measurement": "GI50", "setting": "NCI-H226", "result": "> 100 µM (inactive)"}, {"measurement": "GI50", "setting": "NCI-H460", "result": "> 100 µM (inactive)"}, {"measurement": "GI50", "setting": "NCI-H522", "result": "> 100 µM (inactive)"}, {"measurement": "GI50", "setting": "OVCAR-3", "result": "> 100 µM (inactive)"}, {"measurement": "GI50", "setting": "OVCAR-4", "result": "> 100 µM (inactive)"}, {"measurement": "GI50", "setting": "RXF 393", "result": "> 100 µM (inactive)"}, {"measurement": "GI50", "setting": "SK-MEL-28", "result": "> 100 µM (inactive)"}, {"measurement": "GI50", "setting": "SNB-19", "result": "> 100 µM (inactive)"}, {"measurement": "GI50", "setting": "SW-620", "result": "> 100 µM (inactive)"}]}
{"smiles": "CN(C1=NCCO1)c1cccc2ccccc12", "values": [{"measurement": "GI50", "setting": "A549", "result": "> 10 µM (inactive)"}, {"measurement": "GI50", "setting": "CCRF-CEM", "result": "> 10 µM (inactive)"}, {"measurement": "GI50", "setting": "COLO 205", "result": "> 10 µM (inactive)"}, {"measurement": "GI50", "setting": "HCT-15", "result": "> 10", "unit": "µM"}, {"measurement": "GI50", "setting": "HL-60", "result": "> 10 µM (inactive)"}, {"measurement": "GI50", "setting": "HOP-62", "result": "> 10 µM (inactive)"}, {"measurement": "GI50", "setting": "IGROV-1", "result": "> 10 µM (inactive)"}, {"measurement": "GI50", "setting": "K562", "result": "> 10 µM (inactive)"}, {"measurement": "GI50", "setting": "LOX IMVI", "result": "> 10 µM (inactive)"}, {"measurement": "GI50", "setting": "MOLT-4", "result": "> 10 µM (inactive)"}, {"measurement": "GI50", "setting": "NCI-H226", "result": "> 10 µM (inactive)"}, {"measurement": "GI50", "setting": "NCI-H460", "result": "> 10 µM (inactive)"}, {"measurement": "GI50", "setting": "NCI-H522", "result": "> 10 µM (inactive)"}, {"measurement": "GI50", "setting": "OVCAR-3", "result": "> 10 µM (inactive)"}, {"measurement": "GI50", "setting": "OVCAR-4", "result": "> 10 µM (inactive)"}, {"measurement": "GI50", "setting": "RXF 393", "result": "> 10 µM (inactive)"}, {"measurement": "GI50", "setting": "SK-MEL-28", "result": "> 10 µM (inactive)"}, {"measurement": "GI50", "setting": "SNB-19", "result": "> 10 µM (inactive)"}, {"measurement": "GI50", "setting": "SW-620", "result": "> 10 µM (inactive)"}]}
{"smiles": "COC(=O)C(/C(=N/NC(N)=S)C(=O)Nc1ccccc1[N+](=O)[O-])c1cnc2ccccc2n1", "note": "(centres undefined)", "values": [{"measurement": "GI50", "setting": "A549", "result": "> 100 µM (inactive)"}, {"measurement": "GI50", "setting": "CCRF-CEM", "result": "> 100 µM (inactive)"}, {"measurement": "GI50", "setting": "COLO 205", "result": "> 100 µM (inactive)"}, {"measurement": "GI50", "setting": "HCT-15", "result": "> 100", "unit": "µM"}, {"measurement": "GI50", "setting": "HL-60", "result": "> 100 µM (inactive)"}, {"measurement": "GI50", "setting": "HOP-62", "result": "> 100 µM (inactive)"}, {"measurement": "GI50", "setting": "HOP-92", "result": "> 100 µM (inactive)"}, {"measurement": "GI50", "setting": "IGROV-1", "result": "> 100 µM (inactive)"}, {"measurement": "GI50", "setting": "K562", "result": "> 100 µM (inactive)"}, {"measurement": "GI50", "setting": "LOX IMVI", "result": "> 100 µM (inactive)"}, {"measurement": "GI50", "setting": "MOLT-4", "result": "83 µM (inactive)"}, {"measurement": "GI50", "setting": "NCI-H226", "result": "> 100 µM (inactive)"}, {"measurement": "GI50", "setting": "NCI-H460", "result": "> 100 µM (inactive)"}, {"measurement": "GI50", "setting": "NCI-H522", "result": "> 100 µM (inactive)"}, {"measurement": "GI50", "setting": "OVCAR-4", "result": "> 100 µM (inactive)"}, {"measurement": "GI50", "setting": "RXF 393", "result": "> 100 µM (inactive)"}, {"measurement": "GI50", "setting": "SK-MEL-28", "result": "> 100 µM (inactive)"}, {"measurement": "GI50", "setting": "SNB-19", "result": "> 100 µM (inactive)"}, {"measurement": "GI50", "setting": "SW-620", "result": "> 100 µM (inactive)"}]}
{"smiles": "Cc1cc(=O)nc(S(=O)(=O)NC(=S)Nc2ccc(Cl)cc2)[nH]1", "values": [{"measurement": "GI50", "setting": "A549", "result": "> 100 µM (inactive)"}, {"measurement": "GI50", "setting": "CCRF-CEM", "result": "> 100 µM (inactive)"}, {"measurement": "GI50", "setting": "COLO 205", "result": "> 100 µM (inactive)"}, {"measurement": "GI50", "setting": "HCT-15", "result": "> 100", "unit": "µM"}, {"measurement": "GI50", "setting": "HL-60", "result": "> 100 µM (inactive)"}, {"measurement": "GI50", "setting": "HOP-62", "result": "> 100 µM (inactive)"}, {"measurement": "GI50", "setting": "HOP-92", "result": "> 100 µM (inactive)"}, {"measurement": "GI50", "setting": "IGROV-1", "result": "> 100 µM (inactive)"}, {"measurement": "GI50", "setting": "MOLT-4", "result": "10.2 µM (inactive)"}, {"measurement": "GI50", "setting": "NCI-H226", "result": "> 100 µM (inactive)"}, {"measurement": "GI50", "setting": "NCI-H460", "result": "> 100 µM (inactive)"}, {"measurement": "GI50", "setting": "NCI-H522", "result": "27.1 µM (inactive)"}, {"measurement": "GI50", "setting": "OVCAR-3", "result": "> 100 µM (inactive)"}, {"measurement": "GI50", "setting": "OVCAR-4", "result": "> 100 µM (inactive)"}, {"measurement": "GI50", "setting": "RXF 393", "result": "2.74 µM (inactive)"}, {"measurement": "GI50", "setting": "SK-MEL-28", "result": "> 100 µM (inactive)"}, {"measurement": "GI50", "setting": "SNB-19", "result": "> 100 µM (inactive)"}, {"measurement": "GI50", "setting": "SW-620", "result": "> 100 µM (inactive)"}]}
{"smiles": "CC12CCC(=O)[C@@]1(C)CCCC2O", "note": "(some centres undefined)", "values": [{"measurement": "GI50", "setting": "A549", "result": "> 100 µM (inactive)"}, {"measurement": "GI50", "setting": "CCRF-CEM", "result": "> 100 µM (inactive)"}, {"measurement": "GI50", "setting": "COLO 205", "result": "> 100 µM (inactive)"}, {"measurement": "GI50", "setting": "HCT-15", "result": "> 100", "unit": "µM"}, {"measurement": "GI50", "setting": "HL-60", "result": "> 100 µM (inactive)"}, {"measurement": "GI50", "setting": "HOP-62", "result": "> 100 µM (inactive)"}, {"measurement": "GI50", "setting": "IGROV-1", "result": "> 100 µM (inactive)"}, {"measurement": "GI50", "setting": "K562", "result": "> 100 µM (inactive)"}, {"measurement": "GI50", "setting": "LOX IMVI", "result": "> 100 µM (inactive)"}, {"measurement": "GI50", "setting": "MOLT-4", "result": "> 100 µM (inactive)"}, {"measurement": "GI50", "setting": "NCI-H226", "result": "> 100 µM (inactive)"}, {"measurement": "GI50", "setting": "NCI-H460", "result": "> 100 µM (inactive)"}, {"measurement": "GI50", "setting": "NCI-H522", "result": "> 100 µM (inactive)"}, {"measurement": "GI50", "setting": "OVCAR-4", "result": "> 100 µM (inactive)"}, {"measurement": "GI50", "setting": "SK-MEL-28", "result": "> 100 µM (inactive)"}, {"measurement": "GI50", "setting": "SNB-19", "result": "> 100 µM (inactive)"}, {"measurement": "GI50", "setting": "SW-620", "result": "> 100 µM (inactive)"}]}
